Reference: US5569654A, “Benzodiazepinones” (Glaxo Group Limited, priority 1992, dated 1996)

Columns and labels:
rats = assay: tolerability in rats; type: in vivo; conditions: doses at which the compound exhibits CCK-B antagonist activity
Description: (§1) The compounds of the invention are essentially non-toxic and therapeutically useful doses.

CCK-B receptor = molecular target: T1, CCK-B receptor (Cavia porcellus, UniProt H0VZC5); assay: CCK-B receptor binding affinity (guinea pig cortex assay)
T1 construct: guinea pig cortex assay; from tissue; host or cells: guinea pig cortex
T1 sequence (H0VZC5 1-426): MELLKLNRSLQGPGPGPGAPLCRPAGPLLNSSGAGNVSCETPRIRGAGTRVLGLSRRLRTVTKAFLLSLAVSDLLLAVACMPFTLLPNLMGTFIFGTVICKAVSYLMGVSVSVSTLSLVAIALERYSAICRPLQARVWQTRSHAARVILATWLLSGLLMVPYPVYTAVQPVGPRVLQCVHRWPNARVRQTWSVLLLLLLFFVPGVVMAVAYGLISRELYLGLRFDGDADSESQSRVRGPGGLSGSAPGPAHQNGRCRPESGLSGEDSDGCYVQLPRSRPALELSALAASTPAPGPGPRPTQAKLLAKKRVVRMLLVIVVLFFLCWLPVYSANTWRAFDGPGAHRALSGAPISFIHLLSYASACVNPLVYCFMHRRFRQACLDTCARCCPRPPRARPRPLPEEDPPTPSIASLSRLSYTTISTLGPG
Procedure: The affinity of the compound of the invention for the CCK-B receptor has also been determined using the guinea pig codex assay as described by G Dal Fornoto et al J. Pharmacol Exp. Ther., 261 1056-1063, 1992.
The binding affinity of the compounds of the invention for the CCK-B receptor (guinea pig cortex assay) was determined using the procedure of G Dal Forno et al J. Pharmacol. Exp & Ther. 261--1056-1063. The pKi values determined with respresentative compounds of invention were as follows: […]

dogs = assay: tolerability in dogs; type: in vivo; conditions: doses at which the compound exhibits CCK-B antagonist activity
Description: as §1

SMILES | Ki (CCK-B receptor) [nM] | untoward effects in rats (rats) | untoward effects in dogs (dogs)
CN(C(=O)CN1C(=O)C(NC(=O)Nc2cccc(C#N)c2)N=C(CN2CCCCC2)c2ccccc21)c1ccccc1 (stereo not shown) [Example 1, 2-{3-[3-(3-Cyano-phenyl)-ureido]-2-oxo-5-piperidin-1-ylmethyl-2,3-dihydro-benzo-[e][4.1]diazepin-1-yl}-N-methyl-N-phenyl-acetamide] | 1 |  | 
CN(C(=O)CN1C(=O)C(NC(=O)Nc2cccc(C#N)c2)N=C(CN2CCCC2)c2ccccc21)c1ccccc1 (stereo not shown) [Example 2, 2-{3-[3-(3-Cyano-phenyl)-ureido]-2-oxo-5-pyrrolidin-1-ylmethyl-2,3-dihydro-[e][1,4]diazepin-1-yl}-N-methyl-N-phenyl-acetamide] | 3.98 |  | 
CC(C)NCC1=NC(NC(=O)Nc2cccc(C#N)c2)C(=O)N(CC(=O)N(C)c2ccccc2)c2ccccc21 (stereo not shown) [Example 3, 2-{-[3-(3-Cyano-phenyl)ureido]-5-(isopropylamino-methyl)-2-oxo-2,3-dihydro-benzo-[e][1,4]diazepin-1-yl}-N-methyl-N-phenyl-acetamide] | 2.51 |  | 
CN(C(=O)CN1C(=O)C(NC(=O)Nc2cccc(C#N)c2)N=C(CN2CCSCC2)c2ccccc21)c1ccccc1 (stereo not shown) [Example 4, 2-{3-[3-(3-Cyano-phenyl)-ureido]-2-oxo-5-[1,4]thiazinan-4-ylmethyl-2,3-dihydro-benzo[e][1,4]diazepin-1-y}-N-methyl-N-phenyl-acetamide] | 1.58 |  | 
C[C@@H]1CC[C@H](C)N1C(=O)CN1C(=O)C(NC(=O)Nc2cccc(C#N)c2)N=C(CN2CCOCC2)c2ccccc21 (stereo partly shown) [Example 5] | 3.16 |  | 
CN(C(=O)CN1C(=O)C(NC(=O)Nc2cccc(C#N)c2)N=C(CN2CCOCC2)c2ccccc21)c1ccc(F)cc1 (stereo not shown) [Example 6, 2-{3-[3-(3-Cyano-phenyl)-ureido]-5-morpholin-4-ylmethyl-2-oxo-2,3-dihydro-benzo-[e][1,4]diazepin-1-yl}-N-(4-fluoro-phenyl)-N-methyl-acetamide] | 2 |  | 
CCN(C(=O)CN1C(=O)C(NC(=O)Nc2cccc(C#N)c2)N=C(CN2CCOCC2)c2ccccc21)c1ccccc1 (stereo not shown) [Example 7, 2-{3-[3-(3-Cyano-phenyl)-ureido]-5-morpholin-4-ylmethyl-2-oxo-2,3-dihydro-benzo[e][1,4]diazepin-1yl}-N-ethyl-N-phenyl-acetamide] | 1.58 |  | 

Now from value to molecule, other results behind:

Ki (CCK-B receptor) [nM] | SMILES | untoward effects in rats (rats) | untoward effects in dogs (dogs)
1 | COc1cccc(NC(=O)NC2N=C(CN3CCOCC3)c3ccccc3N(CC(=O)N(C)c3ccccc3)C2=O)c1 (single isomer, unassigned; (+)) [Example 14, (+)-2-{3-[3-(3-Methoxy-phenyl)-ureido]-5-morpholin-4-ylmethyl-2-oxo-2.3-dihydro-benzo [e][1,4]diazepin-1-yl}-N-methyl-N-phenyl-acetamide] | no untoward effects were observed | no untoward effects were observed
1.58 | CC(C)(C)C(=O)CN1C(=O)C(NC(=O)Nc2cccc(C#N)c2)N=C(CN2CCOCC2)c2ccccc21 (stereo not shown) [Example 8, 1-(3-Cyano-phenyl)-3-[1-(3,3-dimethyl-2-oxo-butyl)-5-morpholin-4-ylmethyl-2-oxo-2,3-dihydro-1H-benzo[e][1,4]diazepin-3-yl]-urea] |  | 
1.26 | COc1cccc(NC(=O)NC2N=C(CN3CCOCC3)c3ccccc3N(CC(=O)N(C)c3ccccc3)C2=O)c1 (stereo not shown) [Example 9, 2-{3-[3-(3-Methoxy-phenyl)-ureido]-5-morpholin-4-ylmethyl-2-oxo-2,3-dihydro-benzo[e][1,4]diazepin-1-yl}-N-methyl-N-phenyl-acetamide] |  | 
0.794 | CN(C(=O)CN1C(=O)C(NC(=O)Nc2ccccc2)N=C(CN2CCOCC2)c2ccccc21)c1ccccc1 (stereo not shown) [Example 10, N-Methyl-2-[5-morpholin-4-ylmethyl-2-oxo-3-(3-phenyl-ureido)-2,3-dihydro-benzo[e][1,4]diazepin-1-yl]-N-methyl-N-phenyl-acetamide] |  | 
0.501 | CN(C(=O)CN1C(=O)C(NC(=O)Nc2cccc(C(F)(F)F)c2)N=C(CN2CCOCC2)c2ccccc21)c1ccccc1 (stereo not shown) [Example 11, N-Methyl-2-{5-morpholin-4-ylmethyl-2-oxo-3-[3-(3-trifluoromethyl-phenyl)-ureido]-2,3-dihydro-benzo[e][1,4]diazepin-1-yl}-N-phenyl-acetamide] |  | 
6.31 | CN(C(=O)CN1C(=O)C(NC(=O)Nc2cccc(N)c2)N=C(CN2CCOCC2)c2ccccc21)c1ccccc1 (stereo not shown) [Example 13, 2-{3-[3-(3-Amino-phenyl)-ureido]-5-morpholin-4-ylmethyl-2-oxo-2,3-dihydro-benzo[e][1,4]diazepin-1-yl}-N-methyl-N-phenyl-acetamide] |  | 
5.01 | CN1CCN(CC2=NC(NC(=O)Nc3cccc(C#N)c3)C(=O)N(CC(=O)N(C)c3ccccc3)c3ccccc32)CC1 (stereo not shown) [Example 16, 2-{3-[3-(3-Cyano-phenyl)-ureido]-5-(4-methyl-piperazin-1-ylmethyl)-2-oxo-2,3-dihydro-benzo[e][1,4]diazepin-1-yl}-N-methyl-N-phenyl-acetamide] |  | 
2.51 | COc1cccc(NC(=O)NC2N=C(CCN(C)C)c3ccccc3N(CC(=O)N(C)c3ccccc3)C2=O)c1 (stereo not shown) [Example 17] |  | 
1.26 | CN(C(=O)CN1C(=O)C(NC(=O)Nc2cccc(C#N)c2)N=C(CN2CCOCC2)c2ccccc21)c1ccccc1 (stereo not shown) [Example 18, 2-{3-[3-(3-Cyano-phenyl)-ureido]-5-morpholin-4-ylmethyl-2-oxo-2,3-dihydro-benzo [e][1,4]diazepin-1-yl}-N-methyl-N-phenyl-acetamide] |  | 
3.16 | O=C(Nc1cccc(-c2cnco2)c1)NC1N=C(CN2CCOCC2)c2ccccc2N(CC(=O)N2CCCC2)C1=O (stereo not shown) [Example 19, 1-[5-(Morpholin-4-yl-methyl)-2-oxo-1-(2-oxo-2-pyrrolidin-1-yl-ethyl)-2,3-dihydro-benzo[e][1,4]diazepin-3-yl]-3-(3-oxazol-5-yl-phenyl)-urea] |  | 
